# From patent EP1243268A1, “MEDICINAL COMPOSITION” (Nippon Shinyaku Co., Ltd., priority 1999, dated 2001)
# How the values were obtained:
# mesangial cells = assay: Effect on anti-Thy-1 antibody nephritis in rats (count of cells in the glomeruli); type: in vivo; conditions: rats with anti-Thy-1 antibody nephritis; suspension (1mg/1ml) orally, 1 ml/100g of body weight twice a day for 7 days; kidneys removed on day 8; number of cells per glomerulus, mean ± standard error; Control 104.3±3.3, intact animal 67.25; *: P<0.05, **: P<0.01 (Dunnett's test)
# Text: Anti-Thy-1 antibody-induced nephritis is a model of glomerulonephritis constructed by utilizing the reaction between the Thy-1 antigen occurring as a membrane protein of mesangial cells and the antibody to the antigen. In this model, injuries to mesangial cells and lesions associated with mesangial cell proliferation are found. While a large majority of types of chronic glomerulonephritis in human are those of proliferative glomerulonephritis which show mesangial cell proliferation and increases in mesangial matrix as cardinal pathologic features, anti-Thy-1 antibody nephritis is regarded as a model of this human proliferative glomerulonephritis, particularly mesangial proliferative nephritis [Ishizaki et al., Acta. Pathol. Jpn., 36, 1191 (1986)].
# Rats were used in groups of 7.
# Preparation of the antibody was carried out in accordance with the method of Ishizaki et al. referred to above. Thus, an adjuvant suspension of rat thymocytes was prepared and subcutaneously administered to rabbits for immunization. After two booster doses, the blood was collected and the serum separated was subjected to inactivation and absorption to provide an antiserum (anti-Thy-1 antibody).
# A predetermined amount of the antiserum was injected intravenously from the tail vein of rats to induce nephritis. Starting the following day after injection, a suspension (1mg/1ml) of the test drug was administered orally at a dosage of 1 ml/100g of body weight of rat twice a day for 7 days. On day 8 following the beginning of administration, the animals were sacrificed and the kidneys were removed. The kidney was fixed in Carnoy's fixative and, in the routine manner, paraffin sections were prepared and stained with hematoxyline stain for microscopy. For histopathological evaluation, the number of cells in the glomeruli (mainly mesangial cells) in each tissue preparation was counted under a light microscope. Statistical analysis was performed by Dunnett's test.
# mice = assay: Acute toxicity; type: in vivo; conditions: suspension orally at 300 mg/kg, general condition observed for a week after administration
# Protocol: Each of the compounds in Preparation Examples 1, 5, 6, 33, 34, 39, and 48 was administered.
Structure (SMILES),Number of mesangial cells a) (mesangial cells),deaths (mice)
"Cc1ccc2c(c1)c(C(=O)N1CCN(c3ccccn3)CC1)c(-c1ccccc1)n2C.Cl [Preparation Example 1, 1-(1,5-Dimethyl-2-phenylindol-3-ylcarbonyl)-4-(2-pyridyl)piperazine hydrochloride]",90.3±2.2*,No deaths were observed
"Cn1c(-c2ccccc2)c(C(=O)N2CC[N+]([O-])(c3ccccn3)CC2)c2ccccc21 [Preparation Example 5, 1-(1-Methyl-2-phenylindol-3-ylcarbonyl)-4-(2-pyridyl)piperazine-4-oxide]",–,No deaths were observed
"Cl.Cn1c(-c2ccccc2)c(C(=O)N2CCN(c3ccccn3)CC2)c2ccccc21 [Preparation Example 6, 1-(1-Methyl-2-phenylindol-3-ylcarbonyl)-4-(2-pyridyl)piperazine hydrochloride]",–,No deaths were observed
"Cc1ccc2c(c1)c(C(=O)N1CCN(c3cccnc3)CC1)c(-c1ccccc1)n2C.Cl.Cl [Preparation Example 33, 1-(1,5-Dimethyl-2-phenylindol-3-ylcarbonyl)-4-(3-pyridyl)piperazine dihydrochloride]",88.5±3.7**,No deaths were observed
"Cc1ccc2c(c1)c(C(=O)N1CCN(c3ccncc3)CC1)c(-c1ccccc1)n2C.Cl [Preparation Example 34, 1-(1,5-Dimethyl-2-phenylindol-3-ylcarbonyl)-4-(4-pyridyl)piperazine hydrochloride]",87.1±5.7**,No deaths were observed
"Cc1cc2c(C(=O)N3CCN(c4ccncc4)CC3)c(-c3ccccc3)n(C)c2cc1C.Cl [Preparation Example 39, 1-(1,5,6-Trimethyl-2-phenylindol-3-ylcarbonyl)-4-(4-pyridyl)piperazine hydrochloride]",–,No deaths were observed
"Cl.Cn1c(-c2ccccc2)c(C(=O)N2CCN(c3ccc([N+](=O)[O-])cn3)CC2)c2ccccc21 [Preparation Example 48, 1-(1-Methyl-2-phenylindol-3-ylcarbonyl)-4-(5-nitro-2-pyridyl)piperazine hydrochloride]",89.2±3.1*,No deaths were observed
